Data set [1] deals with murine endothelial brain cells (bEnd.3). In words: Cytotoxicity, cellular viability (CCK-8/WST-8) on bEnd.3. The data set is classed as cell-based. The following applies: mouse. As for the experimental part: (§1) The cellular viability is evaluated by a colorimetric method based on the detection of the conversion of a salt of the tetrazolium (WST-8) by the metabolically active cells (CCK-8 kit, Sigma, Lyons, France) (Molecules, 2014, 19(8), 12048-12064; J. Pharmacol. Toxicol. Methods., 2007, 56(1), 58-62). Living cells have mitochondrial dehydrogenases that reduce the WST-8 (2-(2-methoxy-4-nitrophenyl)-3-(4-nitrophenyl)-5-(2,4-disulfophenyl)-2H-tetrazolium), monosodium salt) to formazan of an orange colour, which dissolves directly in the culture medium in the presence of 1-Methoxy PMS (1-methoxy-5-methylphenazinium methyl sulphate). After an incubation for 1 h at 37° C., the absorbance of the formazan is measured at 450 nm. The absorbance is directly proportional to the number of living cells.
(§2) Briefly, the cells are inoculated in 96-well plates at a rate of 5.10^3 cells per well in 100 μL of the suitable medium until subconfluence. The cells are then washed with D-PBS, then treated with various concentrations (10 μM, 100 μM) of the products to be tested in triplicates for 24 and 48 h. A positive control is carried out with 10% of DMSO. The CCK-8 (10 μL) solution is then added to each well for an incubation for 1 h at 37° C. The measurement of the absorbance is taken at 450 nm using a Perkin Elmer 2103 Envision® microplate reader.
(§3) The viability of the cells is expressed as a % of the control (untreated cells) by the mean±standard deviation of triplicates forming a representative experiment or of three independent experiments conducted in triplicate.
A general note: Formazan colour is commonly taken as a measure of viable cells.

Data set [2] is described as follows: ORACFL test (Oxygen Radical Absorbance Capacity) using fluorescein/AAPH. The class given is physicochemical. The following applies: compounds at 10 μM; for ORACFL: mean ± SEM of three independent experiments in triplicate. As for the experimental part: The antioxidant properties of the compounds according to the invention were evaluated using a ORACFL test using fluorescein (J. Agric. Food Chem., 2004 52, 48-54; J. Agric. Food Chem., 2005, 53, 4290-4302). As such, peroxide radicals, generated in the presence of AAPH (2,2′-azobis(2-methylpropionamidine)dihydrochloride) at 37° C., react with this fluorescent sensor in order to give a non-fluorescent product. The protective effect of the test compounds can then be determined by following the decay curve of the fluorescence of the fluorescein over time and be measuring the area under the curve (AUC) of the sample in relation to that of a control corresponding to an absence of antioxidant.
The trolox (6-hydroxy-2,5,7,8-tetramethylchroman-2-carboxylic acid), a water-soluble analogue of vitamin E, is used as a standard for calculating the antioxidant capacity (ORACFL) of the compounds tested at 10 μM, expressed in […] of tested compound. This value is as such obtained using the straight-line calibration equation giving the area under the curve according to the various concentrations of trolox (Bioorg. Med. Chem., 2015, 23, 1135-1148) (FIG. 11).
A solution of fluorescein (FL) (12 nM; 150 μL) is introduced into a black 96-well plate (Dutscher, Brumath, France). The compounds to be tested (1-20 μM; 25 μL) or trolox (1-50 μM; 25 μL) dissolved in D-PBS are added into each well. After equilibration of the plate during an incubation at 37° C. for a minimum of 30 min, the radical reactions are initiated using a solution of AAPH prepared extemporaneously (30 mM; 25 μL). The fluorescence (λEx: 485 nm; λEm: 520 nm) is measured every 90 seconds for 60 cycles using a temperature-controlled Tecan Infinite® 200 PRO microplate reader (measurements taken in triplicates during three independent experiments).

Data set [3] in a line: Cu2+ chelating properties by UV/Visible light spectrophotometry (murexide). The data set is classed as physicochemical. Particulars: 0.02-2 mM compound, CuSO4 0.25 mM solution, Hexamine buffer pH 5, RT 10 min. As to the method:
J. Mol. Sci., 2009, 10, 5485-5497; Molecules, 2012, 17, 13457-13472). […] A Hexamine buffer 0.01 M/KCl 0.01 M (qsp 200 mL) of which the pH is adjusted to 5 using a solution of HCl 1N is first of all prepared. Solutions of CuSO4.5H2O at 0.5 mM (20 mL) and 0.25 mM (100 mL) are then carried out in this buffer, with the first being used to obtain the calibration curve. An aqueous solution of murexide at 1 mM must also be prepared extemporaneously (10 mL) as well as a stock solution of the compounds to be tested at 4.2 mM in Hexamine buffer 0.01 M/KCl 0.01 M or in a buffer and MeOH 75/25 mixture (6.2 mL). Various concentrations of the compounds to be tested are distributed in Hexamine buffer 0.01M/KCl 0.01M (pH=5) (Table 5) or in a buffer and MeOH 75/25 mixture in tubes for hemolysis (Table 6). The solution of CuSO4.5H2O at 0.25 mM (1 mL) is then added and this is allowed to incubate at RT for 10 min. Finally, the aqueous solution of murexide at 1 mM (0.1 mL) is introduced and is again allowed to incubate at RT for 1 min. The absorbances are then measured at 485 nm ([…]) and 520 nm ([…]) by UV/Visible light spectrophotometry (V-650 JASCO spectrometer) (measurements taken in triplicates). […] After introduction of the aqueous solution of murexide at 1 mM (0.1 mL), this is allowed to incubate at RT for 1 min and the absorbances are finally measured at 485 nm ([…]) and 520 nm ([…]) by UV/Visible light spectrophotometry.

Data set [4] concerns rat pheochromocytoma cells, treated as neuronal cells (PC12). In words: Cytotoxicity, cellular viability (CCK-8/WST-8) on PC12. The data set is classed as cell-based. Particulars: rat. As for the experimental part: as §1, §2, §3

The structures appear in SMILES notation.

This note sets out measurements from patent US10464920B2, “Vicinal primary diamines associated with metal and/or free radical chelation motifs, and active against carbonyl and oxidative stress, and use thereof” (UNIVERSITE AMIENS PICARDIE JULES VERNE, priority 2015, dated 2019).

`NCC(N)CCCCNC(=O)CCn1cccc(O)c1=O` (centres unmarked) [Compound 37b, N-(5,6-diaminohexyl)-3-(3-hydroxy-2-oxopyridin-1(2H)-yl)propanamide]: the “viability of the cells as a percentage of the untreated cells” value in data set [1] (24 h, 10 μM) was 126%; in data set [1] (24 h, 100 μM), 115%; in data set [1] (48 h, 10 μM), 101%; in data set [1] (48 h, 100 μM), 100%; in data set [4] (24 h, 10 μM), 138%; in data set [4] (24 h, 100 μM), 124%. The “viability of the cells as a percentage of the untreated cells” value in data set [4] (48 h, 10 μM) is listed as 115%; in data set [4] (48 h, 100 μM), 107%. Moreover, in data set [2], the ORACFL was 0.99 ± 0.09 μmol TE/μmol. Besides, in data set [3], the “Cu^2+ chelating properties (complexation of the Cu^2+)” value (“Cu^2+ chelating properties” for short) is “most active”.
Consider `COc1cc(/C=C/C(=O)N2CCN(C(=O)CCC(N)CN)CC2)ccc1O` (centres unmarked) [Compound 29a, (E)-4,5-diamino-1-(4-(3-(4-hydroxy-3-methoxyphenyl)acryloyl)piperazin-1-yl)pentan-1-one], for which the “viability of the cells as a percentage of the untreated cells” value turned out to be 98% in data set [1] (24 h, 10 μM); 87% in data set [1] (24 h, 100 μM); 90% in data set [1] (48 h, 10 μM); 83% in data set [1] (48 h, 100 μM); 100% in data set [4] (24 h, 10 μM); 120% in data set [4] (24 h, 100 μM). In addition, the “viability of the cells as a percentage of the untreated cells” value in data set [4] (48 h, 10 μM) worked out at 94%; in data set [4] (48 h, 100 μM), 87%. Further, the ORACFL in data set [2] came out at 2.05 ± 0.23 μmol TE/μmol. In addition, in data set [3], the “Cu^2+ chelating properties” value is reported as “poor results”.
As to `NCC(N)CCCNC(=O)CCn1cccc(O)c1=O` (centres unmarked) [Compound 37a, N-(4,5-diaminopentyl)-3-(3-hydroxy-2-oxopyridin-1(2H)-yl)propanamide], the “viability of the cells as a percentage of the untreated cells” value in data set [1] (24 h, 10 μM) turned out to be 97%; in data set [1] (24 h, 100 μM), 103%; in data set [1] (48 h, 10 μM) it was 99%; in data set [1] (48 h, 100 μM), 93%; in data set [4] (24 h, 10 μM) it was 93%; in data set [4] (24 h, 100 μM) it was 112%. Moreover, the “viability of the cells as a percentage of the untreated cells” value turned out to be 96% in data set [4] (48 h, 10 μM) and 99% in data set [4] (48 h, 100 μM). The same molecule displayed an ORACFL in data set [2] of 0.58 ± 0.02 μmol TE/μmol.
As to `NCC(N)CCC(=O)NCCCn1cccc(O)c1=O` (centres unmarked) [Compound 37c, 4,5-diamino-N-(3-(3-hydroxy-2-oxopyridin-1(2H)-yl)propyl)pentanamide], the “viability of the cells as a percentage of the untreated cells” value in data set [1] (24 h, 10 μM) was found to be 99%; in data set [1] (24 h, 100 μM), 85%; in data set [1] (48 h, 10 μM), 86%; in data set [1] (48 h, 100 μM) it was 84%; in data set [4] (24 h, 10 μM), 110%; in data set [4] (24 h, 100 μM) it was 102%. The “viability of the cells as a percentage of the untreated cells” value turned out to be 91% in data set [4] (48 h, 10 μM) and 94% in data set [4] (48 h, 100 μM). In data set [2], the “antioxidant capacity (ORACFL), in words” value is on record as “most active”. In data set [2], the ORACFL stood at 1.03 ± 0.03 μmol TE/μmol.
Turning to `NCC(N)CCCCNC(=O)c1cc(O)c(O)c(O)c1` (centres unmarked) [Compound 30b, N-(5,6-diaminohexyl)-3,4,5-trihydroxybenzamide], the “viability of the cells as a percentage of the untreated cells” value was determined as 93% in data set [1] (24 h, 10 μM); 99% in data set [1] (24 h, 100 μM); 92% in data set [1] (48 h, 10 μM); 87% in data set [1] (48 h, 100 μM); 110% in data set [4] (24 h, 10 μM); 82% in data set [4] (24 h, 100 μM). Moreover, the “viability of the cells as a percentage of the untreated cells” value in data set [4] (48 h, 10 μM) was 95%; in data set [4] (48 h, 100 μM), 67%. Further, in data set [2], the “antioxidant capacity (ORACFL), in words” value is “most active”. Moreover, the ORACFL in data set [2] is 2.59 ± 0.35 μmol TE/μmol. Also, in data set [3], the “Cu^2+ chelating properties” value was “most active”.
